What was measured:
[1] = test system: male ddY mice; assay: Evaluation 2 of eating behavior of mice (feed intake over 2 hours); format: in vivo; settings: 7 weeks old male ddY mice, single oral dose 1 mg/kg, 2 hours after feeding, FIG. 6, *: P<0.05 relative to the control
Method: Mice (7 weeks old male ddY mice acclimated for at least 1 week before use after being purchased) were orally administered with a single dose of a saline solution of each peptide (1 mg/kg). Subsequently, a previously weighed feed (CE-2 (trade name) manufactured by CLEA Japan, Inc.) was given to the mice, and 2 hours after the feeding, the weight of the remaining feed was measured. A control test was also carried out in which the same procedure was carried out as shown above except that a single dose of saline was orally administered instead of each peptide. The amount of feed intake (g/2 hours) was defined as the difference between the weight of the feed given to the mice and the weight of the feed remaining 2 hours after the feeding. Based on the results, the amount of feed intake in the control group was normalized to 100, and the amount of feed intake in each group was calculated relative to 100. The results are shown in FIG. 6 (n=7 to 18, *: P<0.05 relative to the control).

[2] = test system: Ghrelin-secreting cells (MGN3-1); assay: Ghrelin secretion activity evaluation (ghrelin in medium, ELISA); format: cell-based; settings: MGN3-1 cells; for ghrelin secretion (ghrelin concentration in medium): peptide concentration 0.01, 0.1, or 1 mM, FIG. 2, n=4; for significance of ghrelin secretion promoting effect: peptide concentration of 1 mM or more, FIG. 2
Method: (§1) Ghrelin-secreting cells (MGN3-1) were seeded at 1×10^5 cells/well onto a 96-well plate and cultured in a sodium octanoate/DMEM medium at 37° C. for 24 hours. After the cultivation, the cells were washed with DPBS. A buffer solution of each peptide was prepared and, 100 μL of the buffer solution (with a peptide concentration of 1 mg/mL or 10 mg/mL) was added to the cells. The cells were further cultured at 37° C. for 4 hours. The buffer used contained 50 μM of sodium octanoate in DMEM.
Unless otherwise stated, all tests shown below were performed using, as a control, a culture obtained in the same manner as shown above except that only the buffer was added instead of the buffer solution of the peptide.
After the cultivation, the medium sample was collected and centrifuged to give a supernatant. Subsequently, 10 μL of 1 N HCl was added to the supernatant, and the resulting sample was stored at −80° C. until it was subjected to the ghrelin concentration measurement shown below.
The concentration of ghrelin in each medium sample was measured using an ELISA kit (Ghrelin (Acylated) EIA Kit A05117 (trade name) manufactured by Bertin Pharma SAS). The results shown in FIG. 1 are values relative to the measured value of the control.
The two peptides were evaluated for their effect on ghrelin secretion by the same method as shown above (Ghrelin Secretion Activity Evaluation 1).

[3] = test system: Ghrelin-secreting cells (MGN3-1); assay: Intracellular ghrelin level (Ghrelin Secretion Activity Evaluation 3); format: cell-based; settings: MGN3-1 cells, FIG. 3A, n=4 or 5
Method: as §1
The peptide of SEQ ID NO: 1 was evaluated for its effect on ghrelin secretion (intracellular ghrelin level) by the same method as shown above (Ghrelin Secretion Activity Evaluation 1).

[4] = test system: ghrelin synthesis-related genes (Preproghrelin, GOAT, and PC3); assay: Evaluation of ghrelin synthesis-related gene expression (qPCR); format: cell-based; settings: MGN3-1 cells, FIGS. 3B, 3C, 3D, n=4 or 5
Method: The expression levels of the three, ghrelin synthesis-related genes (Preproghrelin, GOAT, and PC3) in the cells obtained after the completion of the cultivation shown above (Ghrelin Secretion Activity Evaluation 1) were measured by the method shown below. First, mRNA was extracted from the cells using RNeasy Mini Kit (manufactured by QIA-GEN) and Takara PrimeScript RT Master Mix (manufactured by Takara Bio Inc.). Subsequently, the mRNA expression level was measured through the amplification of cDNA using LightCycler 96 System (manufactured by Roche Diagnostics K.K.) and THUNDERBIRD qPCR Mix (manufactured by Toyobo Co., Ltd.). The results are shown in FIG. 3B (Preproghrelin), FIG. 3C (GOAT), and FIG. 3D (PC3) (n=4 or 5).

[5] = test system: Ghrelin-secreting cells (MGN3-1); assay: Evaluation of intracellular CAMP level; format: cell-based; settings: MGN3-1 cells, 0.5 mM IBMX, 37° C. 30 minutes, FIG. 4
Method: Ghrelin-secreting cells (MGN3-1) were […] in a Krebs-Ringer-HEPES buffer containing 0.5 mM IBMX. After the mixture was incubated at 37° C. for 30 minutes, the intracellular CAMP was quantified using HitHunter CAMP Assay for Small Molecules (manufactured by DiscoveRx).

[6] = test system: Ghrelin-secreting cells (MGN3-1); assay: Evaluation of intracellular calcium ion level; format: cell-based; settings: data not shown
Method: The intracellular calcium ion level was measured using Calcium Kit II-Fluo 4 (Dojindo Laboratories) and a multi-plate reader (manufactured by BMG LABTECH GmbH, Aex: 485 nm, Xem: 520 nm).

[7] = test system: male ddY mice; assay: Evaluation 1 of eating behavior of mice (feed intake over 4 hours); format: in vivo; settings: 11 weeks old male ddY mice, single oral dose 1 mg/kg, 4 hours after feeding, vs saline control, FIG. 5A
Method: Mice (11 weeks old male ddY mice) were orally administered with a single dose of a saline solution of the peptide of SEQ ID NO: 1 (1 mg/kg). Subsequently, a previously weighed feed (CE-2 (trade name) manufactured by CLEA Japan, Inc.) was given to the mice, and 4 hours after the feeding, the weight of the remaining feed was measured. A control test was also carried out in which the same procedure was carried out as shown above except that a single dose of saline was orally administered instead of the peptide of SEQ ID NO: 1. The amount of feed intake (g/4 hours) was defined as the difference between the weight of the feed given to the mice and the weight of the feed remaining 4 hours after the feeding.

[8] = test system: male ddY mice; assay: Evaluation of mouse serum ghrelin level; format: in vivo; settings: 11 weeks old male ddY mice, 0.3 mg/kg, 1 hour after administration, FIG. 5B
Method: Mice (11 weeks old male ddY mice) were administered with a saline solution of the peptide of SEQ ID NO: 1 (0.3 mg/kg). Subsequently, 1 hour after the administration, blood was collected from the orbital vein of the mice and centrifuged at 4° C. at 1,120×g for 10 minutes. The resulting supernatant was acidified with 1 N HCl and then measured for serum ghrelin level (pg/ml) using an acylated ghrelin enzyme immunoassay kit.

Substance	amount of feed intake relative to control (control normalized to 100) [1]	ghrelin secretion (ghrelin concentration in medium) [2]	significance of ghrelin secretion promoting effect [2]	also measured
QGSF [SEQ ID NO: 7]	significantly increased			
QAFE [SEQ ID NO: 3]	significantly increased			
QAFEPIRSV [SEQ ID NO: 1]	increased	ghrelin secretion promoting effect	significant	extracellular ghrelin level ([2]; data not shown): increased; intracellular ghrelin level [3]: tendency to reduce; expression levels of the ghrelin synthesis-related genes (Preproghrelin, GOAT, PC3 mRNA) [4]: not found to change; intracellular CAMP level [5]: no effect; intracellular calcium ion level [6]: no effect; amount of feed intake [7]: increased; serum ghrelin level [8]: increased
TNPW [SEQ ID NO: 5]	significantly increased			
HSPR [SEQ ID NO: 6]	significantly increased			
TNPWHSPROGSF (TNPWHSPRQGSF) [SEQ ID NO: 2]	increased	ghrelin secretion promoting effect	significant	

Reference: patent US20240287132A1, “PEPTIDE, COMPOSITION, AND GHRELIN SECRETION PROMOTING AGENT” (KYOTO UNIVERSITY, priority 2019, published 2024)
